Test results published in patent publication US20230285598A1, “SULFOXONIUM YLIDE DERIVATIVES AS PROBES FOR CYSTEINE PROTEASE” (Takeda Pharmaceutical Company Limited, priority 2018, published 2023).
Entries after “also recorded” stand apart in the source; their conditions may differ.

How the values were obtained:
cathepsin X [1] = target: T1, cathepsin X (Mus musculus, UniProt Q9WUU7); test: In vivo probe labeling in mice (intravenous), tissues analyzed by fluorescent SDS-PAGE
Procedure: For in vivo labeled tissues, mice were first injected intravenously via the tail vein with sCy5-Nle-SY, BMV109, or sCy5-Nle-AOMK (50 nmol in 100 µl 10% DMSO/PBS or vehicle control). Tissues were harvested and analyzed as above except without further probe addition.
In Example 10, the probe sCy5-Nle-SY, vehicle control/no probe (NP) or BMV109 were injected into mice intravenously. After two hours of circulation, tissues were harvested, lysed, and analyzed for probe labeling by fluorescent SDS-PAGE.
In Example 12, the AOMK probe sCy5-Nle-AOMK was tested in vivo and its labeling in tissues was analyzed. The probe was injected into mice intravenously. After two hours of circulation, tissues were harvested, lysed, and analyzed for probe labeling by fluorescent SDS-PAGE.

cathepsin X [2] = target: T1, cathepsin X; test: Confocal microscopy of kidney cryosections after in vivo probe administration
Procedure: Kidney tissues from mice that received sCy5-Nle-SY (or vehicle control) above were fixed overnight in 4% paraformaldehyde in PBS followed by overnight cryoprotection in 30% sucrose. Tissues were embedded in OCT, frozen on dry ice, and sectioned at 10 µm. Immunostaining for cathepsin X was carried out according to standard protocols. In brief, sections were air dried, fixed in cold acetone for 10 minutes, air dried again, and then rehydrated in PBS. Sections were blocked in PBS containing 3% normal horse serum with 0.1% Triton X-100. Goat anti-cathepsin X was added at 1:100 in blocking buffer overnight at 4° C. Sections were then washed, and secondary antibody, donkey anti-goat-AlexaFluor594 was added at 1:500 for 1 hour at room temperature. Sections were stained with DAPI for 5 minutes, washed, and mounted with ProLong Diamond. Staining was analyzed using a Leica SP8 inverted confocal microscope.
Additionally, after in vivo probe administration, kidney cryosections from sCy5-Nle-SY-injected mice or no-probe control were prepared and analyzed by confocal microscopy for sCy5 fluorescence (red) or cathepsin X immunoreactivity (green) along with DAPI (blue) to visualize nuclei. […] Thus, sCy5-Nle-SY could be used to distinguish active cathepsin X relative to total cathepsin X in tissues after in vivo administration.

[3] = intravenous 50 nmol, two hours of circulation

T1 sequence (Q9WUU7 64-306): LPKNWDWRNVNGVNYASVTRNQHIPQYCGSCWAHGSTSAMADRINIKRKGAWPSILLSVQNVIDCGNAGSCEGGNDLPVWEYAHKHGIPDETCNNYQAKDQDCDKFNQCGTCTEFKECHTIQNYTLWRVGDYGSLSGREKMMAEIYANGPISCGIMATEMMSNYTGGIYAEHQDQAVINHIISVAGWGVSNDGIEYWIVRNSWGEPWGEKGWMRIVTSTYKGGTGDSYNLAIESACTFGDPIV

overall specificity profile in vivo (cathepsin X [1]; intravenous, two hours, compared to BMV109): clearly improved compared to BMV109
Structure (SMILES): CCCC[C@H](NC(=O)CCCCCN1/C(=C/C=C/C=C/C2=[N+](CC)c3ccc(S(=O)(=O)[O-])cc3C2(C)C)C(C)(C)c2cc(S(=O)(=O)O)ccc21)C(=O)C=S(C)(C)=O [sCy5-Nle-SY]
labeling of cathepsin S, B and L in tissues after in vivo administration (cathepsin X [1]; [3]): some labeling of cathepsin S was also observed; also recorded: does not label cathepsin B or L
labeling of cathepsin X in tissues after in vivo administration (cathepsin X [1]; [3]): Labeling of cathepsin X was observed in liver, kidney, colon, stomach, and spleen
sCy5 fluorescence in kidney cryosections (cathepsin X [2]; after in vivo probe administration): Strong punctate sCy5 fluorescence was observed
overlap of sCy5 signal with cathepsin X immunoreactivity (cathepsin X [2]; kidney cryosections after in vivo probe administration): signal largely overlapped with immunoreactive cathepsin X
